Assays:
CheWS [1] = target: T1, CheWS (Treponema denticola, UniProt F7IUZ1); assay: isothermal titration calorimetry with purified domain; assay type: binding; parameters: gene cheW-1; isolated CheRlike domain (residues 203–444)
Target sequence in this assay (F7IUZ1 entry or part of it): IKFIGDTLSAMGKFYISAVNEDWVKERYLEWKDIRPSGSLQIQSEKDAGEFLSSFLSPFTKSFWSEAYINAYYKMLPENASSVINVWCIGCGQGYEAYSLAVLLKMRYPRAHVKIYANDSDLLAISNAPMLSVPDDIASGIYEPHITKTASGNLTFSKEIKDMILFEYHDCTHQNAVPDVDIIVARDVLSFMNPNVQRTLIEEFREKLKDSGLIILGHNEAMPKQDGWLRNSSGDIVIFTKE

CheWS [2] = target: T1, CheWS; assay: isothermal titration calorimetry with purified protein; assay type: binding; parameters: gene cheW-1; full-length CheWS (CheW-CheRlike), poly-His tag
Target sequence in this assay (F7IUZ1 entry or part of it): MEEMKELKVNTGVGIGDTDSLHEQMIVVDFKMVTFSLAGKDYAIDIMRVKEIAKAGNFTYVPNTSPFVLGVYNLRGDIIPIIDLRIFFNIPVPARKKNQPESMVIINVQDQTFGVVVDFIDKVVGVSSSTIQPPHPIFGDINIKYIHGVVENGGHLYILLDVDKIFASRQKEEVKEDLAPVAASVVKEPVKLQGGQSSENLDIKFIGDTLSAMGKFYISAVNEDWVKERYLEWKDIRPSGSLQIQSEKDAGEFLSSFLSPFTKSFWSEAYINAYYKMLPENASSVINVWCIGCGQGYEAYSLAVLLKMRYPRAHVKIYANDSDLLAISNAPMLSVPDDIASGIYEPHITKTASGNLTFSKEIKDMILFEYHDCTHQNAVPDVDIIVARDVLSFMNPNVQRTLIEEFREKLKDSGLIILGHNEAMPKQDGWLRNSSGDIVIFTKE

SMILES	Kd (CheWS [1])	Kd (CheWS [2])
C[S+](CC[C@H](N)C(=O)[O-])C[C@H]1O[C@@H](n2cnc3c(N)ncnc32)[C@H](O)[C@@H]1O (some centres unmarked) [SAM, S-adenosylmethionine]	~18 µM	
Nc1ncnc2c1ncn2[C@@H]1O[C@H](CSCC[C@H](N)C(=O)O)[C@@H](O)[C@H]1O [SAH, S-adenosylhomocysteine]		~17 µM

— publication PMC10653840, “A new class of protein sensor links spirochete pleomorphism, persistence, and chemotaxis” (mBio, 2023)
